Results taken from patent publication US8486936B2, “Antagonist of smoothened” (AllaChem, LLC, priority 2009, dated 2013).

These compounds were tested on Hh-signalling cascade (assay: Inhibition of SHh-stimulated alkaline phosphatase in C3H10T1/2 cells (Hh-signalling cascade IC50)). Details: Mus musculus, C3H 10T1/2, 384-well plates, triplicates, SHh protein stimulation, read-out: Activity (IC50, half maximal inhibition of stimulation of cell alkaline phosphatase by SHh).
Assay type: cell-based
Description: Version 1—manual setup, 96-well plates, dose-response, C3H/10T1/2 cells. Aim: to determine activity of Sonic Hedgehog pathway inhibitors.
• C3H/10T1/2 cells, grown in DMEM medium/10% FBS to 60-80% confluent • Assay Plates: 96-well half-area tissue culture plates Corning cat. #3697 • Tested compounds as 10 mM DMSO solutions in 96-tube racks • Recombinant Human Sonic Hedgehog (C2411) protein, RDS product #1845-SH, reconstituted at 200 μg/ml in PBS. • Lysis Buffer: 10 mM Ethanolamine Buffer (pH 8.0), 0.2% Triton-X100, supplemented 1:100 with Protease Inhibitor Cocktail (EMD Bioscience product #539134). • CSPD Alkaline Phosphatase Substrate with Emerald-II (Applied Biosystems product #T2212). • Prepare 1 Assay plate for every 4 compounds (see FIG. 1): • 1. Harvest C3H/10T1/2 cells with TrypLE Express solution according to a regular cell subculture protocol • 2. Count the cells and calculate dilution necessary to obtain cell suspension at 5×10^3 cells per 40 μl ([…]) • 3. Dilute cells with DMEM/10% FBS and distribute at 40 μl/well • 4. Place the plate(s) into the incubator and allow cells to attach for 3-5 hours • Prepare dilution plate: • 1. Designate 1 column for each compound • 2. Add 99 μl of DMEM/10% FBS to the wells in row A and 50 μl to the wells in rows B-H • 3. Add 1 μl of compound DMSO stocks to the wells in row A, mix, change the tip. • 4. Transfer […] of compound solutions in row A to the wells in row B, mix, change the tip • 5. […] Row G is a “no compound” positive control; row H is a “no Hedgehog” negative control • Add 5 μl/well of 10× compound dilutions from dilution plate to the corresponding wells in assay plates (see assay plate layout). Use 125 μl automatic repeating pipettor. • Place plates into incubator for 20-30 min. • Prepare 3 μg/ml 10× solution of Sonic Hedgehog (C24II) protein (Hh) in DMEM/10% FBS: • 1. Calculate total volume needed as 500 μl per full plate or 125 μl per each compound tested • 2. Add 1.5 μl of Hh stock solution (200 μg/ml in PBS) per each 98.5 μl of medium • Add 5 μl/well of 10× Hh solution to the wells in rows A-G, add 5 μl/well of medium to the wells in row H (see assay plate layout). Use 125 μl automatic repeating pipettor. • Place plates into incubator for 3 days. • Wash cells on plate: aspirate medium, add 100 μl/well of PBS or HBSS and aspirate again. • Add 20 μl/well of lysis buffer and incubate for 15 min. at room temperature on a shaker platform. • Transfer 7.5 μl/well of cell lysate into white opaque plates and add 45 μl/well of CSPD Alkaline Phosphatase substrate. • Cover from light and incubate for 45 min. at room temperature on a shaker platform. • Read the plate(s) on Wallac VictorV reader using Luminescence (0.1 s) protocol.
Cells C3H10T1/2 were used for identification of inhibitors of SHh-protein signaling cascade. SHh-protein activates cells C3H10T1/2, that leads to their osteogenic differentiation [1) Kinto N., Iwamoto M., Enomoto-Iwamoto M., Noji S., Ohuchi H., Yoshioka H., Kataoka H., Wada Y., Yuhao G., Takahashi H. E., Yoshiki S., Yamaguchi A. Fibroblasts expressing Sonic hedgehog induce osteoblast differentiation and ectopic bone formation. FEBS Lett. 1997; 404 (2-3): 319-23. 2) Spinella-Jaegle S., Rawadi G., Kawai S., Gallea S., Faucheu C., Mollat P., Courtois B., Bergaud B., Ramez V., Blanchet A. M., Adelmant G., Baron R., Roman-Roman S. Sonic hedgehog increases the commitment of pluripotent mesenchymal cells into the osteoblastic lineage and abolishes adipocytic differentiation. J. Cell Sci. 2001; 114 (Pt 11): 2085-94] and, in particular, to expression enhancement of alkaline phosphatase enzyme.
The cells were cultivated in DMEM medium with 10% embryonal calfish serum in incubator at 37° C., 100% humidity and 5% CO2 content. The cells were placed in 384-well plates and left for a night. […]

**Q.** `COc1ccc(C(=O)Nc2ccc(-c3cn4cccc(C)c4n3)cc2)cc1OC` [Cpd-013] was tested. Which IC50 did it give?
**A.** Its IC50 is under 500 nM.

**Q.** How did the IC50 turn out when `COc1ccc(C(=O)Nc2ccc(-c3cn4cccc(C)c4n3)cc2)c(F)c1` [Cpd-011] was run?
**A.** Its IC50 is under 500 nM.

**Q.** How did the IC50 turn out when `CCc1cccn2cc(-c3ccc(NC(=O)c4ccc(F)cc4F)cc3)nc12` [Cpd-008] was run?
**A.** The IC50 was 500 to 5000 nM.

**Q.** With `Cc1cccn2cc(-c3ccc(NC(=O)c4ccc(S(C)(=O)=O)cc4Br)cc3)nc12` [Cpd-003] as the compound, how does the IC50 read?
**A.** The IC50 was under 500 nM.

**Q.** `COc1ccc(C(=O)Nc2ccc(-c3cn4cccc(C)c4n3)cc2)c(Oc2ccncc2)c1` [Cpd-004] was tested. Which IC50 did it give?
**A.** Its IC50 is 500 to 5000 nM.

**Q.** `Cc1cc(S(C)(=O)=O)ccc1C(=O)Nc1ccc(-c2cn3cccc(C)c3n2)cc1` [Cpd-020] was tested. Which IC50 did it give?
**A.** The IC50 was under 500 nM.

**Q.** How did the IC50 turn out when `Cc1cccn2cc(-c3ccc(NC(=O)c4ccccc4F)cc3)nc12` [Cpd-006] was run?
**A.** Its IC50 is 500 to 5000 nM.

**Q.** For `Cc1cccn2cc(-c3ccc(NC(=O)c4ccc(C(C)C)cc4)cc3)nc12` [Cpd-014], which IC50 is on record?
**A.** Its IC50 is 5000 to 50000 nM.

**Q.** Which IC50 does the source give for `Cc1cccn2cc(-c3ccc(NC(=O)c4ccc(Cl)cc4Cl)cc3)nc12` [Cpd-009] here?
**A.** Its IC50 is 5000 to 50000 nM.

**Q.** How did the IC50 turn out when `Cc1cccn2cc(-c3ccc(NC(=O)c4ccc5c(c4)OCO5)cc3)nc12` [Cpd-012] was run?
**A.** The IC50 was 500 to 5000 nM.

**Q.** How did the IC50 turn out when `CCOc1ccc(C(=O)Nc2ccc(-c3cn4cccc(C)c4n3)cc2)c(Cl)c1` [Cpd-010] was run?
**A.** The IC50 was under 500 nM.

**Q.** With `COc1ccc(C(=O)Nc2ccc(-c3cn4cccc(C)c4n3)cc2)c(Br)c1` [Cpd-001] as the compound, how does the IC50 read?
**A.** The IC50 was under 500 nM.

**Q.** With `COc1ccc(C(=O)Nc2ccc(-c3cn4cccc(C)c4n3)cc2)c(Cl)c1` [Cpd-005] as the compound, how does the IC50 read?
**A.** Its IC50 is under 500 nM.

**Q.** `Cc1cccn2cc(-c3ccc(NC(=O)c4ccc(F)cc4F)cc3)nc12` [Cpd-007] was tested. Which IC50 did it give?
**A.** The IC50 was 5000 to 50000 nM.

**Q.** Which IC50 does the source give for `Cc1cccn2cc(-c3ccc(NC(=O)c4ccc(C(C)(C)C)cc4)cc3)nc12` [Cpd-015] here?
**A.** The IC50 was 500 to 5000 nM.

**Q.** With `Cc1cccn2cc(-c3ccc(NC(=O)c4ccc(C(F)(F)F)cc4)cc3)nc12` [Cpd-016] as the compound, how does the IC50 read?
**A.** The IC50 was over 50000 nM.

**Q.** Which IC50 does the source give for `Cc1cccc(C)c1C(=O)Nc1ccc(-c2cn3cccc(C)c3n2)cc1` [Cpd-018] here?
**A.** Its IC50 is under 500 nM.

**Q.** `Cc1cccn2cc(-c3ccc(NC(=O)c4ccc(-c5ccccc5)cc4)cc3)nc12` [Cpd-017] was tested. Which IC50 did it give?
**A.** The IC50 was 5000 to 50000 nM.

**Q.** How did the IC50 turn out when `CCOc1ccc(C(=O)Nc2ccc(-c3cn4cccc(C)c4n3)cc2)c(Br)c1` [Cpd-019] was run?
**A.** The IC50 was 500 to 5000 nM.

**Q.** Which IC50 does the source give for `Cc1cccn2cc(-c3ccc(NC(=O)c4ccc(S(C)(=O)=O)cc4Cl)cc3)nc12` [Cpd-002] here?
**A.** Its IC50 is under 500 nM.
